Test results reported in patent publication US7273856B2, “Linear basic compounds having NK-2 antagonist activity and formulations thereof” (Menarini Ricerche S.P.A., priority 2001, dated 2007).
Where “and” joins values, the source holds several entries; their conditions need not be identical. Equal entries are not always repeated. Structures can show the parent of a compound that is named as a salt.

Target: T1, human NK-2 receptor (Homo sapiens, UniProt P21452)
T1 construct: expressed in transfected cells; host or cells: CHO (Chinese hamster ovary) cells, membranes
T1 sequence (P21452 1-398): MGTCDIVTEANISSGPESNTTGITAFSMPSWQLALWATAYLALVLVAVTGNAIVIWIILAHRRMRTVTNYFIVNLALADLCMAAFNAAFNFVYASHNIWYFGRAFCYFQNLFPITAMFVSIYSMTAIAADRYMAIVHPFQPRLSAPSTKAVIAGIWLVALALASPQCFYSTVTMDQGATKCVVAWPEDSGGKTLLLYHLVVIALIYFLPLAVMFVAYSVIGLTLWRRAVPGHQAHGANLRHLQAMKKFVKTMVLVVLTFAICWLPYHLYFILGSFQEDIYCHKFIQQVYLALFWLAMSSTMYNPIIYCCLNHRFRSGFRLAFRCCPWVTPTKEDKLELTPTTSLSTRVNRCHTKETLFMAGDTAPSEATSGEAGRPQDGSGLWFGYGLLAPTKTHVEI
Assay: binding test, affinity for the human NK-2 receptor, competition with [125I]NKA on transfected CHO cell membranes
Conditions: CHO cell membranes transfected with NK-2 receptor of human ileum; [125I]NKA 100 pM; 30 min, 20° C.
Protocol: The evaluation of the antagonist activity on NK-2 receptors has been assessed by binding and functional tests according to that already described in literature in relation to NK-2 antagonists.
The test substances have been tested within a concentration range from 0.01 nM to 10 nM. At the end of the incubation time (30 min, 20° C.) the samples have been filtered and radioactivity has been determined using a gamma-counter.

Row | SMILES | Ki | pKi
1 | Cc1ccc(C=CC(=O)NC2(C(=O)N[C@H](Cc3ccccc3)C(=O)N[C@H]3CC[C@@H](C(=O)N[C@H]4CCCC[C@@H]4N)C3)CCCC2)cc1.O=C(O)C(F)(F)F [Example 5, N^γ{N^α[N^α[4-(methyl)cynnamoyl]-1-aminocyclopentan-1-carboxy]-D-phenylalanyl}-(1R,3S)-3-aminocyclopentane-1-carboxylic-acid-N-((1S,2S)-2-aminocyclohexyl)amide trifluoroacetate salt] |  | 9.7
2 | N[C@H]1CCCC[C@@H]1NC(=O)[C@@H]1CC[C@H](NC(=O)[C@@H](Cc2ccccc2)NC(=O)C2(NC(=O)c3ccc(-c4ccccc4)cc3)CCCC2)C1.O=C(O)C(F)(F)F [Example 3, N^γ{N^α[N^α(biphen-4-ylcarboxy)-1-aminocyclopentan-1-carboxy]-D-phenylalanyl}-(1R,3S)-3-aminocyclopentane-1-carboxylic-acid-N-((1S,2S)-2-aminocyclohexyl)amide trifluoroacetate salt] |  | 9.6
3 | O=C(NC1(C(=O)N[C@@H](CNCCC2CCN(C(=O)Cc3cccs3)CC2)Cc2ccccc2)CCCC1)c1cc2ccccc2s1 [Example 94, Benzo[b]thiophene-2-carboxylic acid [1-(1(R)benzyl-2-{2-[1-(thiophen-2-yl-acetyl)-piperidin-4-yl]-ethylamino}-ethylcarbamoyl)-cyclopentyl]-amide TFA salt] | 0.631 nM | 
4 | NC1CCCCC1NC(=O)[C@@H]1C[C@@H](NC(=O)[C@@H](Cc2ccccc2)NC(=O)C2(NC(=O)c3cc4ccccc4s3)CCCC2)CN1 (relative stereo) [Example 36] |  | 10.6
5 | O=C(NC1(C(=O)N[C@H](Cc2ccccc2)C(=O)NCCCN2CCOCC2)CCCCC1)c1cc2ccccc2s1 [Example 20, N^α[N^α(benzo[b]thiophen-2-yl-carbonyl)-1-aminocyclohexan-1-carboxy]-D-phenylalanine-N-[3(morpholin-4-yl)propyl]amide] |  | 9.1
6 | CC1CN(CCCNC(=O)[C@@H](Cc2ccccc2)NC(=O)C2(NC(=O)c3cc4ccccc4s3)CCCCC2)CC(C)O1 (stereo partly drawn) [Example 48, Benzo[b]thiophene-2-carboxylic acid (1-{1-[3-(2,6-dimethyl-morpholin-4-yl)-propylcarbamoyl]-2-(R)-phenyl-ethylcarbamoyl}-cyclohexyl)-amide] | 0.398 nM | 
7 | NC1CCCCC1NC(=O)C1CCC(NC(=O)C(Cc2ccccc2)NC(=O)C2(NC(=O)c3cc4ccccc4s3)CCCC2)C1 (single isomer, unassigned) [Example 2] | 0.158 nM | 
8 | O=C(NC1(C(=O)N[C@H](Cc2ccccc2)C(=O)NCCC(=O)N2CCN(c3ccccn3)CC2)CCCC1)c1ccc2cc(Br)ccc2c1 [Example 58, 6-Bromo-naphthalene-2-carboxylic acid (1-{1(R)-[3-oxo-3-(4-pyridin-2-yl-piperazin-1-yl)propylcarbamoyl]-2-phenyl-ethylcarbamoyl}-cyclopentyl)-amide TFA salt] | 3.16 nM | 
9 | CN1CCCN(CCCNC(=O)[C@@H](Cc2ccccc2)NC(=O)C2(NC(=O)c3cc4ccccc4s3)CCCC2)CC1 [Example 52, Benzo[b]thiophen-2-carboxylic acid, (1-{1(R)-[3-(4-methyl-[1,4]diazepan-1-yl)-propylcarbamoyl]-2-phenylethylcarbamoyl}-cyclopentyl)-amide TFA salt] | 2 nM | 
10 | N[C@H]1CCCC[C@@H]1NC[C@@H]1CC[C@H](NC(=O)[C@@H](Cc2ccccc2)NC(=O)C2(NC(=O)c3cc4ccccc4s3)CCCC2)C1 [Example 38] |  | 9.5
11 | CCCCN(CCCC)CCCNC(=O)[C@@H](Cc1ccccc1)NC(=O)C1(NC(=O)c2cc3ccccc3s2)CCCCC1 [Example 19, N^α[N^α(benzo[b]thiophen-2-yl-carbonyl)-1-aminocyclohexan-1-carboxy]-D-phenylalanine-N-{3-[bis(n-butyl)amino]propyl}amide] |  | 8.9
12 | NCCCCCNC(=O)C1CCCC(NC(=O)[C@@H](Cc2ccccc2)NC(=O)C2(NC(=O)c3cc4ccccc4s3)CCCCC2)C1.O=C(O)C(F)(F)F (stereo in doubt) [Example 22, N^γ{N^α[N^α(benzo[b]thiophen-2-ylcarbonyl)-1-aminocyclohexan-1-carboxy]-D-phenylalanyl}-3-cis-aminocyclohexan-1-carboxylic-acid-N-(5-aminopentyl)-amide trifluoroacetate salt] |  | 9.2
13 | CC[C@@](C)(NC(=O)C=Cc1ccc(C)cc1)C(=O)N[C@H](Cc1ccccc1)C(=O)N[C@H]1CC[C@@H](C(=O)N[C@H]2CCCC[C@@H]2N)C1.O=C(O)C(F)(F)F [Example 15, N^γ{N^α[N^α(4-methylcinnamoyl)-(R)-α-methyl-α-ethylglycyl]-D-phenylalanyl}-(1R,3S)-3-amino cyclopentane-1-carboxylic-acid-N-((1S,2S)-2-aminocyclohexyl) amide trifluoroacetate salt] |  | 10.0

Second part, led by results:

Row | Ki | SMILES | pKi
14 | 0.2 nM | Cn1c(C(=O)NC2(C(=O)N[C@H](Cc3ccccc3)C(=O)NCCCN3CCOCC3)CCCC2)cc2ccc(Cl)cc21 [Example 111, 6-Chloro-1-methyl-1H-indole-2-carboxylic acid {1-[1R-(3-morpholin-4-yl-propylcarbamoyl)-2-phenyl-ethylcarbamoyl]-cyclopentyl}-amide] | 
15 | 0.316 nM | O=C(NC1(C(=O)N[C@H](Cc2ccccc2)C(=O)NCC2CCN(CC3CCOCC3)CC2)CCCC1)c1cc2ccc(Cl)cc2o1 [Example 120] | 
16 | 0.02 nM | NC1(C(=O)N2CCC(CNC(=O)[C@@H](Cc3ccccc3)NC(=O)C3(NC(=O)c4ccc5cc(Br)ccc5c4)CCCC3)CC2)CCCCC1 [Example 97, 6-Bromo-naphthalene-2-carboxylic acid [1-(1(R)-{[1-(1-amino-cyclohexanecarbonyl)-piperidin-4-ylmethyl]-carbamoyl}-2-phenyl-ethylcarbamoyl)-cyclopentyl]-amide] | 
17 | 0.0794 nM | O=C(NC1(C(=O)N[C@H](Cc2ccccc2)C(=O)NCCCN2CCOCC2)CCCC1)c1cc2ccc(Br)cc2s1 [Example 108, 6-Bromo-benzo[b]thiophene-2-carboxylic acid {1-[1R-(3-morpholin-4-yl-propylcarbamoyl)-2-phenyl-ethylcarbamoyl]-cyclopentyl}-amide] | 
18 | 0.158 nM | Cc1ccc2oc(C(=O)NC3(C(=O)N[C@H](Cc4ccccc4)C(=O)NCC4CCN(CC5CCOCC5)CC4)CCCC3)cc2c1 [Example 126, 5-Methyl-benzofuran-2-carboxylic acid [1-(2-phenyl-1R-([1-(tetrahydro-pyran-4-ylmethyl)-piperidin-4-ylmethyl]-carbamoyl}-ethylcarbamoyl)-cyclopentyl]-amide] | 
19 | 1.58 nM | Cc1ccc2c(c1)cc(C(=O)NC1(C(=O)N[C@H](Cc3ccccc3)C(=O)NCCCN3CCOCC3)CCCC1)n2C [Example 114, 1,5-Dimethyl-1H-indole-2-carboxylic acid {1-[1R-(3-morpholinyl-propylcarbamoyl)-2-phenyl-ethylcarbamoyl]-cyclopentyl}-amide] | 
20 | 1.26 nM | CN1CCN(C[C@@H]2CC[C@H](NC(=O)[C@@H](Cc3ccccc3)NC(=O)C3(NC(=O)c4cc5ccccc5s4)CCCC3)C2)CC1 [Example 32] | 
21 | 0.0794 nM | O=C(NC1(C(=O)N[C@H](Cc2ccccc2)C(=O)NCC2CCN(CC3CCOCC3)CC2)CCCC1)c1cc2cc(I)ccc2o1 [Example 127, 5-Iodo-benzofuran-2-carboxylic acid [1-(2-phenyl-1R-{[1-(tetrahydro-pyran-4-ylmethyl)-piperidin-4-ylmethyl]-carbamoyl}-ethylcarbamoyl)-cyclopentyl]-amide] | 
22 | 0.501 nM and 0.316 nM | O=C(NC1(C(=O)N[C@H](Cc2ccccc2)C(=O)NCCCN2CCOCC2)CCCC1)c1cc2cc(Br)ccc2o1 [Example 104, 5-Bromo-benzofuran-2-carboxylic acid {1-[1R-(3-morpholin-4-yl-propylcarbamoyl)2-phenyl-ethylcarbamoyl]-cyclopentyl}-amide] | 
23 | 0.501 nM | O=C(NC1(C(=O)N[C@H](Cc2ccccc2)C(=O)NCC2CCN(CC3CCOCC3)CC2)CCCC1)c1cc2cc(F)ccc2o1 [Example 121, 5-Fluoro-benzofuran-2-carboxylic acid [1-(2-phenyl-1R-{[1-(tetrahydro-pyran-4-ylmethyl)-piperidin-4-ylmethyl]-carbamoyl}-ethylcarbamoyl)-cyclopentyl]-amide] | 
24 | 0.1 nM | O=C(NC1(C(=O)N[C@H](Cc2ccccc2)C(=O)NCC2CCN(CC3CCSCC3)CC2)CCCC1)c1cc2ccccc2s1 [Example 82, Benzo[b]thiophene-2-carboxylic acid [1-(2-phenyl-1(R)-{[1-(tetrahydro-thiopyran-4-ylmethyl)-piperidin-4-ylmethyl]-carbamoyl}-ethylcarbamoyl)cyclopentyl]-amide] | 
25 | 0.0794 nM | O=C(NC1(C(=O)N[C@H](Cc2ccccc2)C(=O)NCC2CCN(C3CCSCC3)CC2)CCCC1)c1cc2ccccc2s1 [Example 81, Benzo[b]thiophene-2-carboxylic acid [1-(2-phenyl-1(R)-{[1-(tetrahydro-thiopyran-4-yl)-piperidin-4-ylmethyl]-carbamoyl}-ethylcarbamoyl)-cyclopentyl]-amide TFA salt] | 
26 | 0.316 nM | O=C(NC1(C(=O)N[C@H](Cc2ccccc2)C(=O)NCCCN2CCOCC2)CCCC1)c1cc2ccc(Cl)c(Cl)c2s1 [Example 116, 6,7-Dichloro-benzo[b]thiophene-2-carboxylic acid {1-[1R-(3-morpholin-4-yl-propylcarbamoyl)-2-phenyl-ethylcarbamoyl]-cyclopentyl}-amide] | 
